Measured values published in patent US6699861B1, “Anti-quinazoline compounds” (Cancer Research Technology Limited, priority 1999, dated 2004).
Several values for one entry are separate records, joined by “and”; a condition that tells them apart may be missing. Identical values can stand only once. Like-named read-outs stand apart in the source and are kept apart here.

Legend:
W1L2:R865 cell line = test: Growth inhibition of W1L2:R865 cells (acquired resistance to CB 30865); type: cell-based, human
Description: A cell line was raised with acquired resistance to CB 30865, denoted W1L2:R865, by stepwise selection over ˜9 months.
The generated W1L2:R865 cell line was routinely cultured in 0.03 μm CB 30865 under the same conditions as W1L2 cells, with cells being grown in the absence of CB 30865 for ˜2 weeks before an experiment.
The activity of compounds against W1L2:R865 cells was determined within parallel experiments by 72 h growth inhibition assay (Coulter counts). CB 30865 was included in every experiment as an internal control.

W1L2:C1 cells = test: Growth inhibition of W1L2:C1 cells (elevated TS); type: cell-based, human; conditions: read-out: Inhibition of Cell Growth IC50, W1L2:C1 (B)
Description: W1L2 human lymphoblastoid, W1L2:C1 (elevated TS; O'Connor et al, Cancer Res, 52, 1137-1143 (1992)) and L1210 mouse leukaemia cells were cultured in suspension and A2780, PXN94, 41M, HX62, SKOV3 (human ovarian carcinoma), MCF-7 (human breast carcinoma), HT29 and SW480 (human colon carcinoma) cell lines were grown as monolayers as described in Jackman et al, Cancer Res, 50, 5212-5218 (1990) and Jackman et al, Br. J. Cancer, 71, 914-924 (1995).
Growth inhibition studies with suspension cells were performed as described in Jackman et al, Cancer Res, 50, 5212-5218 (1990). Activity against the adherent cell lines was assessed by MTT assay (Twentyman et al, Br. J. Cancer, 56, 279-285 (1987)) where cells were seeded in 96-well plates at 1000-3000 cells per well, incubated overnight and then exposed to the appropriate drug concentrations for 96-120 h.

[1] = system: W1L2 human lymphoblastoid cells; test: Growth inhibition of W1L2 cells; type: cell-based; conditions: W1L2 suspension cells, read-out: Inhibition of Cell Growth IC50, W1L2 (B)
[2] = Homo sapiens, 72 h, read-out: Inhibition of Cell Growth IC50, W1L2:R865 (D), 72 h growth inhibition assay (Coulter counts)
[3] = Homo sapiens, Lymphoblastoid cell
[4] = read-out: Inhibition of Cell Growth IC50, W1L2:R865 (D), 72 h growth inhibition assay (Coulter counts)
[5] = Homo sapiens, 72 h growth inhibition assay (Coulter counts), read-out: Inhibition of Cell Growth IC50, W1L2:R865 (D)

SMILES: C#CCN(Cc1cc2c(=O)n(C)c(CN3CCN(C)CC3)nc2cc1Cl)c1ccc(C(=O)NCc2cccnc2)cc1 [CB300921, 4-[N-[7-Chloro-3-methyl-2-(4-methyl-piperazin-1-yl)methyl-4-oxo-3,4-dihydroquinazolin-6-ylmethyl]-N-(prop-2-ynyl)amino]-N-(3-pyridylmethyl)benzamide]
- IC50 (W1L2:R865 cell line; [2]): > 10000 nM
- IC50 (W1L2:C1 cells): 0.62 nM and 0.54 nM
- IC50 [1, 3]: 0.65 ± 0.15 nM

SMILES: C#CCN(Cc1cc2c(=O)n(C)c(CN3CCN(C)CC3)nc2cc1Cl)c1ccc(C(=O)NCCCn2ccnc2)cc1 [CB300929, 4-[N-[7-Chloro-3-methyl-2-(4-methyl-piperazin-1-yl)methyl-4-oxo-3,4-dihydroquinazolin-6-ylmethyl]-N-(prop-2-ynyl)amino]-N-[3-(1H-imidazol-1-yl)propyl)benzamide]
- IC50 (W1L2:R865 cell line; [2]): 18000 nM
- IC50 (W1L2:R865 cell line; [4]): 14000 nM
- IC50 (W1L2:C1 cells; Homo sapiens): 2.3 nM
- IC50 (W1L2:C1 cells): 2.2 nM
- IC50 [1, 3]: 2.1 nM
- IC50 [1]: 2.2 nM
- melting point: > 115 °C

SMILES: C#CCN(Cc1cc2c(=O)n(C)c(CN3CCN(CCO)CC3)nc2cc1Cl)c1ccc(C(=O)NCc2cccnc2)cc1 [CB300930, 4-[N-[7-Chloro-3-methyl-2-(4-(2-hydroxyethyl)-piperazin-1-yl)methyl-4-oxo-3,4-dihydroquinazolin-6-ylmethyl]-N-(prop-2-ynyl)amino]-N-(3-pyridylmethyl)benzamide]
- IC50 (W1L2:R865 cell line; [2]): 22000 nM
- IC50 (W1L2:R865 cell line; [4]): 19000 nM
- melting point: 115 to 117 °C

SMILES: C#CCN(Cc1cc2c(=O)n(C)c(CN3CCOCC3)nc2cc1Cl)c1ccc(C(=O)NCc2cccnc2)cc1 [CB300925, 4-[N-[7-Chloro-3-methyl-2-morpholinomethyl-4-oxo-3,4-dihydroquinazolin-6-ylmethyl]-N-(prop-2-ynyl)amino]-N-(3-pyridylmethyl)benzamide]
- IC50 (W1L2:R865 cell line; [2]): 19000 nM
- IC50 [1, 3]: 2 ± 0.36 nM
- melting point: > 145 °C

SMILES: C#CCN(Cc1cc2c(=O)n(C)c(CN3CCCCC3)nc2cc1Cl)c1ccc(C(=O)NCCCn2cncn2)cc1 [CB300942]
- IC50 (W1L2:R865 cell line; 72 h growth inhibition assay (Coulter counts), read-out: Inhibition of Cell Growth IC50, W1L2:R865 (D)): 20000 nM
- IC50 (W1L2:C1 cells): > 500 nM
- IC50 [1]: > 500 nM

SMILES: C#CCN(Cc1cc2c(=O)n(CC(=O)N(CC)CC)c(CN3CCCCC3)nc2cc1Cl)c1ccc(C(=O)NCc2cccnc2)cc1 [CB300941, 4-[N-[7-Chloro-3-diethylcarbamoylmethyl-4-oxo-2-(piperidin-1-yl)methyl-3,4-dihydroquinazolin-6-ylmethyl]-N-(prop-2-ynyl)amino]-N-(3-pyridylmethyl)benzamide]
- IC50 (W1L2:R865 cell line; [2]): 19000 nM
- IC50 (W1L2:C1 cells; Homo sapiens): 8.4 nM
- IC50 [1, 3]: 9.4 nM
- melting point: > 105 °C

SMILES: C#CCN(Cc1cc2c(=O)n(CC(=O)OC)c(CN3CCCCC3)nc2cc1Cl)c1ccc(C(=O)NCc2cccnc2)cc1 [CB300931, 4-[N-[7-Chloro-3-methoxycarbonylmethyl-4-oxo-2-piperidin-1-ylmethyl-3,4-dihydroquinazolin-6-ylmethyl]-N-(prop-2-ynyl)amino]-N-(3-pyridylmethyl)benzamide]
- IC50 (W1L2:R865 cell line; [2]): 23000 nM
- IC50 (W1L2:C1 cells; Homo sapiens): 9.6 nM
- IC50 [1, 3]: 11 nM
- melting point: 214 to 216 °C

SMILES: C#CCN(c1ccc(C(=O)NCc2cccnc2)cc1)C1CCc2cc3cc(C)n(C)c(=O)c3cc21 (stereo not drawn) [CB300847, reference compound]
- IC50 (W1L2:R865 cell line; [5]): 2500 nM
- IC50 (W1L2:C1 cells; Homo sapiens): 2.7 nM
- IC50 [1, 3]: 6.5 ± 1.7 nM

SMILES: C#CCN(Cc1cc2c(=O)n(C)c(CN3CCC(O)CC3)nc2cc1Cl)c1ccc(C(=O)NCc2cccnc2)cc1 [CB300939, 4-[N-[7-Chloro3-methyl-2-(4-hydroxypiperidin-1-yl)methyl-4-oxo-3,4-dihydroquinazolin-6ylmethyl]-N-(prop-2-ynyl)amino]-N-(3-pyridylmethyl)benzamide]
- IC50 (W1L2:R865 cell line; [2]): 18000 nM
- IC50 (W1L2:C1 cells; Homo sapiens): 0.7 nM
- IC50 [1, 3]: 0.72 nM

SMILES: CN(c1ccc(C(=O)NCc2cccnc2)cc1)C1CCc2cc3nc(CN4CCCCC4)n(C)c(=O)c3cc21 (stereo not drawn) [CB300943]
- IC50 (W1L2:R865 cell line; [5]): > 500 nM
- IC50 (W1L2:C1 cells; Homo sapiens): 26 nM
- IC50 [1, 3]: 28 nM
